The target of the experiment is MPO (Homo sapiens, UniProt P05164). The experiment in a line: Stopped-flow kinetics of NO with MPO. In kind it is biochemical. More on the design: MPO was initially purified from detergent extracts of human leukocytes; from tissue; host or cells: human leukocytes (detergent extracts). The method, then:
[…] EPO was isolated from porcine whole blood obtained fresh at the slaughterhouse as described by Jorg et al. (1982) Biochim Biophys Acta 701:185-191. EPO was assayed by guaiacol oxidation (see Klebanoff et al. (1984) Methods Enzymol. 105:399-403). […] The concentration of the MPO dimer was calculated as half the indicated concentration of heme-like chromophore. Bovine LPO was obtained from Worthington Biochemistry Corporation (Lakewood, N.J.) and used without further purification.
To examine the kinetics of interaction between NO and MPO Compounds I and II, stopped-flow spectroscopy was used. The kinetics of Compound II formation and decay in the absence and presence of different NO concentrations were performed using a dual syringe stopped-flow instrument obtained from Hi-Tech Ltd (model SF-51). Measurements were carried out under anaerobic atmosphere, at 25° C. and monitored at 455 nm (an isosbestic point of Compound I and MPO ground state) following rapid mixing of equal volumes of an H202-containing buffer solution and an MPO solution that contained different NO concentrations. The time course of absorbance change was fit to either single or double exponential functions as indicated. The rate constants for the formation (kon) and decay (koff) of the MPO-Fe(III)-NO complex in the presence of plasma levels of the alternative substrate Cl^− (100 mM) were determined by monitoring absorbance change at 430 nm at 10° C. […]
Rapid kinetic studies were initially performed under Cl^− free conditions using 2 co-substrates, a fixed (low) level of H2O2 and variable levels of NO. […] The subsequent decrease in absorbance at 455 nm observed was also fit to a single exponential function with a rate constant of […] and was attributed to the decay of compound II.
(An anaerobic solution containing sodium phosphate buffer (200 mM, pH 7.0) supplemented with H2O2 (20 μM) was rapidly mixed with an equal volume of buffer containing 0.86 μM of MPO-Fe(III) and differing concentrations of NO at 25° C.) NO was readily used as a one e^− substrate by Compound I, as indicated by the rapid buildup of MPO Compound II. […]
In a parallel series of experiments, the influence of NO on the kinetics of MPO Compound II buildup, duration, and decay during steady-state catalysis in the presence of plasma levels of the competing substrate Cl^− was examined. Reactions were again performed under anaerobic conditions and the absorbance change at 455 nm monitored following rapid mixing of enzyme and various concentrations of NO (2.5, 12.5, 25 and 50 μM final) in the presence of H202 (10 μM final) and Cl^− (100 mM final). Anaerobic spectra of MPO-Fe(III) were recorded at 25° C. in septum-sealed quartz cuvettes that were equipped with a quick-fit joint for attachment to a vacuum system. […]

MPO, sequence (P05164 279-745 limits assumed): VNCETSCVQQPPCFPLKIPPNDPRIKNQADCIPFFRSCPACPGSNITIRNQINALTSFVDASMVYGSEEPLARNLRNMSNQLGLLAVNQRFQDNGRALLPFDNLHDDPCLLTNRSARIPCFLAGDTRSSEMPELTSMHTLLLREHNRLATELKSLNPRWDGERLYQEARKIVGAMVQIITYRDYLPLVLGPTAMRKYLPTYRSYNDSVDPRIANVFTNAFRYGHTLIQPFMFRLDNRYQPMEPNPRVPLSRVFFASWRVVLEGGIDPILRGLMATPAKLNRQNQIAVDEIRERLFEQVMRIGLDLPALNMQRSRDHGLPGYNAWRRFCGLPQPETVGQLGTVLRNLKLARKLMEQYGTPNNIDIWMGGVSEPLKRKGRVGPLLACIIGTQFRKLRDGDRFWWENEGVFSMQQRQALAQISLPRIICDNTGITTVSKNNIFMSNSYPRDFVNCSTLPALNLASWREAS
MPO, sequence (P05164 165-273 limits assumed): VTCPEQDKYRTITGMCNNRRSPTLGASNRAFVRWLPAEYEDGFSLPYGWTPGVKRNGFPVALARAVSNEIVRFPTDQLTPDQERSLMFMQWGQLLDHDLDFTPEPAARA

Regarding `[N]=O` [NO, nitric oxide], the “enhancement of rate of MPO Compound II accumulation” value (10 μM H2O2, Cl^− free, 25° C.) was roughly 20 fold. The koff (100 mM Cl^−, 11° C., read-out: koff for NO binding to MPO-Fe(III)) stood at 22.3 s⁻¹. The kon (100 mM Cl^−, 11° C., read-out: kon for NO binding to MPO-Fe(III)) is 150000 M⁻¹ s⁻¹. Moreover, the “second order rate constant of MPO Compound II decay” value (Cl^− free, 25° C.) was 8×10^3 M^−1S^−1.

As a reminder, the koff is the first-order rate constant of dissociation. By kon is commonly meant the rate constant with which the complex forms.

The values above are taken from US20040028749A1, “Treating inflammation and associated complications” (priority 2000, published 2004).
